Reference: patent US20060112494A1, “Method of protecting an animal skin product from metalloproteinase activity” (priority 2004, published 2006)
Where two headings read alike, the source gives them in different places.

Experiments:
collagenase [1] = conditions: for Collagenase Activity/Days 2: day 2; for Collagenase Activity/Days 7: day 7; for Collagenase Activity/Days 1: day 1
Pseudomonas fluorescens = test system: Pseudomonas fluorescens
Experimental: (§1) Nutrient agar amended with Azocoll (a substrate made up of insoluble particles of collagen impregnated with a bright azo dye) was used as the test medium to study collagenase activity. The nutrient agar was prepared and autoclaved and then was cooled to 55° C. Azocol was added to give a final concentration of 0.5%. […] Using a sterile spatula or cork-borer, the middle portion of each plate of about the size of a United States quarter, was scooped out. Fresh nutrient agar-azocoll medium containing no inhibitor was added to replace the scooped out portion of the plate. […] The bacteria were grown overnight on nutrient agar. A suspension of each culture was made in sterile water and used to inoculate the middle portion of each plate. The treated samples were incubated at 30° C. and evaluated after 24 hours, 2 days and 7 days for collagenase activity and also for the growth of the bacteria. The test cultures secreted collagenase into the medium as they grew to degrade the collagen in the azocoll medium, and collagenase activity was determined by visual inspection of the clear zone around the bacteria. All % are by weight percent of the active ingredient.

Aeromonas salmonicida = test system: Aeromonas salmonicida; set-up: key to the marks not given beside the values; conditions: for Growth/Days 1: day 1; for Growth/Days 2: day 2; for Growth/Days 7: day 7
Experimental: as §1

collagenase [2] = test system: collagenase
[3] = Conc. 1.8%, column day 1, footnote d: data collected on day 2
[4] = Conc. 1.8%, column day 2, footnote e: data collected on day 3

O=C(O)C[C@H](NCCN[C@@H](CC(=O)O)C(=O)O)C(=O)O [Na3EDDS, S,S′-ethylenediamine disuccinic acid]
Collagenase Activity/Days 2 (collagenase [1]; Conc. 0.2%): ++++ | Collagenase Activity/Days 7 (collagenase [1]; Conc. 0.2%): ++++ | Collagenase Activity/Days 1 (collagenase [1]; Conc. 0.5%): 0 | Collagenase Activity/Days 7 (collagenase [1]; Conc. 0.5%): ++++ | Collagenase Activity/Days 1 (collagenase [1]; Conc. 0.7%): 0 | Collagenase Activity/Days 1 (collagenase [1]; Conc. 1%): 0 | Collagenase Activity/Days 1 (collagenase [1]; Conc. 1.2%): 0 | Collagenase Activity/Days 2 (collagenase [1]; Conc. 1.2%): + | Collagenase Activity/Days 7 (collagenase [1]; Conc. 1.2%): ++++ | Collagenase Activity/Days 1 (collagenase [1]; Conc. 1.3%): 0 | Collagenase Activity/Days 2 (collagenase [1]; Conc. 1.3%): 0 | Collagenase Activity/Days 1 (collagenase [1]; Conc. 1.5%): 0 | Collagenase Activity/Days 2 (collagenase [1]; Conc. 1.5%): 0 | Collagenase Activity/Days 7 (collagenase [1]; Conc. 1.5%): 0 | Collagenase Activity/Days 1 (collagenase [1]; Conc. 1.8%): 0 | Collagenase Activity/Days 2 (collagenase [1]; Conc. 1.8%): 0 | Collagenase Activity/Days 7 (collagenase [1]; Conc. 1.8%): 0 | Collagenase Activity/Days 1 (collagenase [1]; Conc. 2%): 0 | Collagenase Activity/Days 2 (collagenase [1]; Conc. 2%): 0 | Collagenase Activity/Days 7 (collagenase [1]; Conc. 2%): 0 | performance as collagenase inhibitors (summary in words) (collagenase [1]; collagenase produced by the bacteria studied, Table 2): performed very well as collagenase inhibitors | Growth/Days 1 (Pseudomonas fluorescens; Conc. 0.1%, day 1): ++++ | Growth/Days 2 (Pseudomonas fluorescens; Conc. 0.1%, day 2): ++++ | Growth/Days 7 (Pseudomonas fluorescens; Conc. 0.1%, day 7): ++++ | Growth/Days 1 (Pseudomonas fluorescens; Conc. 0.2%, day 1): ++++ | Growth/Days 2 (Pseudomonas fluorescens; Conc. 0.2%, day 2): ++++ | Growth/Days 7 (Pseudomonas fluorescens; Conc. 0.2%, day 7): ++++ | Growth/Days 1 (Pseudomonas fluorescens; Conc. 0.3%, day 1): ++++ | Growth/Days 2 (Pseudomonas fluorescens; Conc. 0.3%, day 2): ++++ | Growth/Days 7 (Pseudomonas fluorescens; Conc. 0.3%, day 7): ++++ | Growth/Days 1 (Pseudomonas fluorescens; Conc. 0.4%, day 1): ++++ | Growth/Days 2 (Pseudomonas fluorescens; Conc. 0.4%, day 2): ++++ | Growth/Days 7 (Pseudomonas fluorescens; Conc. 0.4%, day 7): ++++ | Growth/Days 1 (Pseudomonas fluorescens; Conc. 0.5%, day 1): ++++ | Growth/Days 2 (Pseudomonas fluorescens; Conc. 0.5%, day 2): ++++ | Growth/Days 7 (Pseudomonas fluorescens; Conc. 0.5%, day 7): ++++ | Growth/Days 1 (Pseudomonas fluorescens; Conc. 0.6%, day 1): ++++ | Growth/Days 2 (Pseudomonas fluorescens; Conc. 0.6%, day 2): ++++ | Growth/Days 7 (Pseudomonas fluorescens; Conc. 0.6%, day 7): ++++ | Growth/Days 1 (Pseudomonas fluorescens; Conc. 0.7%, day 1): ++++ | Growth/Days 2 (Pseudomonas fluorescens; Conc. 0.7%, day 2): ++++ | Growth/Days 7 (Pseudomonas fluorescens; Conc. 0.7%, day 7): ++++ | Growth/Days 1 (Pseudomonas fluorescens; Conc. 0.8%, day 1): ++++ | Growth/Days 2 (Pseudomonas fluorescens; Conc. 0.8%, day 2): ++++ | Growth/Days 7 (Pseudomonas fluorescens; Conc. 0.8%, day 7): ++++ | Growth/Days 1 (Pseudomonas fluorescens; Conc. 0.9%, day 1): ++++ | Growth/Days 2 (Pseudomonas fluorescens; Conc. 0.9%, day 2): ++++ | Growth/Days 7 (Pseudomonas fluorescens; Conc. 0.9%, day 7): ++++ | Growth/Days 1 (Pseudomonas fluorescens; Conc. 1%, day 1): ++++ | Growth/Days 2 (Pseudomonas fluorescens; Conc. 1%, day 2): ++++ | Growth/Days 7 (Pseudomonas fluorescens; Conc. 1%, day 7): ++++ | Growth/Days 1 (Pseudomonas fluorescens; Conc. 1.3%, day 1): ++++ | Growth/Days 2 (Pseudomonas fluorescens; Conc. 1.3%, day 2): ++++ | Growth/Days 7 (Pseudomonas fluorescens; Conc. 1.3%, day 7): ++++ | Growth/Days 1 (Pseudomonas fluorescens; Conc. 1.5%, day 1): ++++ | Growth/Days 2 (Pseudomonas fluorescens; Conc. 1.5%, day 2): ++++ | Growth/Days 7 (Pseudomonas fluorescens; Conc. 1.5%, day 7): ++++ | Growth/Days 1 (Pseudomonas fluorescens; [3]): ++++^d | Growth/Days 2 (Pseudomonas fluorescens; [4]): ++++^e | Growth/Days 7 (Pseudomonas fluorescens; Conc. 1.8%, day 7 (footnote f)): ++++^f | Growth/Days 1 (Aeromonas salmonicida; Conc. 0.2%): ++++ | Growth/Days 2 (Aeromonas salmonicida; Conc. 0.2%): ++++ | Growth/Days 7 (Aeromonas salmonicida; Conc. 0.2%): ++++ | Growth/Days 1 (Aeromonas salmonicida; Conc. 0.5%): ++++ | Growth/Days 2 (Aeromonas salmonicida; Conc. 0.5%): ++++ | Growth/Days 7 (Aeromonas salmonicida; Conc. 0.5%): ++++ | Growth/Days 1 (Aeromonas salmonicida; Conc. 0.7%): ++++ | Growth/Days 2 (Aeromonas salmonicida; Conc. 0.7%): ++++ | Growth/Days 7 (Aeromonas salmonicida; Conc. 0.7%): ++++ | Growth/Days 1 (Aeromonas salmonicida; Conc. 1%): ++++ | Growth/Days 2 (Aeromonas salmonicida; Conc. 1%): ++++ | Growth/Days 7 (Aeromonas salmonicida; Conc. 1%): ++++ | Growth/Days 1 (Aeromonas salmonicida; Conc. 1.2%): ++++ | Growth/Days 2 (Aeromonas salmonicida; Conc. 1.2%): ++++ | Growth/Days 7 (Aeromonas salmonicida; Conc. 1.2%): ++++ | Growth/Days 1 (Aeromonas salmonicida; Conc. 1.3%): ++++ | Growth/Days 2 (Aeromonas salmonicida; Conc. 1.3%): ++++ | Growth/Days 7 (Aeromonas salmonicida; Conc. 1.3%): ++++ | Growth/Days 1 (Aeromonas salmonicida; Conc. 1.5%): ++++ | Growth/Days 2 (Aeromonas salmonicida; Conc. 1.5%): ++++ | Growth/Days 7 (Aeromonas salmonicida; Conc. 1.5%): ++++ | Growth/Days 1 (Aeromonas salmonicida; Conc. 1.8%): +++ | Growth/Days 2 (Aeromonas salmonicida; Conc. 1.8%): ++++ | Growth/Days 7 (Aeromonas salmonicida; Conc. 1.8%): ++++ | Growth/Days 1 (Aeromonas salmonicida; Conc. 2%): ++ | Growth/Days 2 (Aeromonas salmonicida; Conc. 2%): +++ | Growth/Days 7 (Aeromonas salmonicida; Conc. 2%): +++ | Collagenase Activity/Days 1 (collagenase [2]; Conc. 0.1%, day 1): ++++ | Collagenase Activity/Days 2 (collagenase [2]; Conc. 0.1%, day 2): ++++ | Collagenase Activity/Days 7 (collagenase [2]; Conc. 0.1%, day 7): ++++ | Collagenase Activity/Days 2 (collagenase [2]; Conc. 0.2%, day 2): ++++ | Collagenase Activity/Days 7 (collagenase [2]; Conc. 0.2%, day 7): ++++ | Collagenase Activity/Days 1 (collagenase [2]; Conc. 0.3%, day 1): 0 | Collagenase Activity/Days 2 (collagenase [2]; Conc. 0.3%, day 2): +++ | Collagenase Activity/Days 7 (collagenase [2]; Conc. 0.3%, day 7): ++++ | Collagenase Activity/Days 1 (collagenase [2]; Conc. 0.4%, day 1): 0 | Collagenase Activity/Days 2 (collagenase [2]; Conc. 0.4%, day 2): ++ | Collagenase Activity/Days 7 (collagenase [2]; Conc. 0.4%, day 7): ++++ | Collagenase Activity/Days 1 (collagenase [2]; Conc. 0.5%, day 1): 0 | Collagenase Activity/Days 7 (collagenase [2]; Conc. 0.5%, day 7): ++++ | Collagenase Activity/Days 1 (collagenase [2]; Conc. 0.6%, day 1): 0 | Collagenase Activity/Days 2 (collagenase [2]; Conc. 0.6%, day 2): 0 | Collagenase Activity/Days 7 (collagenase [2]; Conc. 0.6%, day 7): + | Collagenase Activity/Days 1 (collagenase [2]; Conc. 0.7%, day 1): 0 | Collagenase Activity/Days 1 (collagenase [2]; Conc. 0.8%, day 1): 0 | Collagenase Activity/Days 2 (collagenase [2]; Conc. 0.8%, day 2): 0 | Collagenase Activity/Days 7 (collagenase [2]; Conc. 0.8%, day 7): 0 | Collagenase Activity/Days 1 (collagenase [2]; Conc. 0.9%, day 1): 0 | Collagenase Activity/Days 2 (collagenase [2]; Conc. 0.9%, day 2): 0 | Collagenase Activity/Days 7 (collagenase [2]; Conc. 0.9%, day 7): 0 | Collagenase Activity/Days 1 (collagenase [2]; Conc. 1%, day 1): 0 | Collagenase Activity/Days 1 (collagenase [2]; Conc. 1.3%, day 1): 0 | Collagenase Activity/Days 2 (collagenase [2]; Conc. 1.3%, day 2): 0 | Collagenase Activity/Days 1 (collagenase [2]; Conc. 1.5%, day 1): 0 | Collagenase Activity/Days 2 (collagenase [2]; Conc. 1.5%, day 2): 0 | Collagenase Activity/Days 7 (collagenase [2]; Conc. 1.5%, day 7): 0 | Collagenase Activity/Days 1 (collagenase [2]; [3]): 0^d | Collagenase Activity/Days 2 (collagenase [2]; [4]): 0^e | Collagenase Activity/Days 7 (collagenase [2]; Conc. 1.8%, day 7 (footnote f)): 0^f | performance as collagenase inhibitors (summary in words) (collagenase [2]; collagenase produced by the bacteria studied, Table 1): performed very well as collagenase inhibitors
